{"source": "patent US20240415152A1", "about": "“METHODS FOR IMPROVING HEALTH OF FISH, USE OF ZINC OXIDE PARTICLES FOR THE PREPARATION OF FISH FEED, METHODS FOR PREPARING FISH FEED FOR FISH, AND FISH FEED THEREOF” (City University of Hong Kong, priority 2023, published 2024)", "type_in_all_cases": "in vivo, Trachinotus ovatus", "conditions_in_all_cases": "dietary 60 mg/kg, 5 weeks", "key": {"[1]": {"tested_on": "intestinal tissue of fish", "assay": "In situ spatial quantitative analysis of intestinal tissue (HE sections, tissue cytometry)", "description": "After dietary exposure, all fish were starved for 24 h, and the ice-water was used to anesthetize fish from different groups. To avoid sample contamination during sampling, we first thoroughly disinfected the sampling table with 75% alcohol, and then spread a disposable tablecloth and disinfected it twice. All metal dissection tools were high-temperature sterilization. Each treatment group shared one set of dissection tools. After each set of samples, the disposable tablecloth was replaced and thoroughly sterilized for the following group sampling. The tubes (sterile and enzyme-free) for the temporary storage of samples were purchased from Corning. Inc. The alcohol lamp was kept on throughout the sampling process. Fish's weights were measured immediately. All individual fish per net were swabbed using 75% alcohol. After that, we used a 1 mL disposable syringe to collect the blood from the caudal vertebra of the fish. The blood was quickly drawn into the pre-cooled 1.5 mL-centrifuge tubes (RNA-free tube). Then, all the blood samples were put in the 4° C. refrigerator for 24 h, and then centrifuged (4° C., 3000 r/min, 10 min) to obtain the serum samples for biochemical analysis. The blood-drawn fish were quickly dissected to obtain the gill, intestine content, intestine, liver, and muscle. Each replicated sample contained 6 fish, resulting in 18 fish per treatment group (with 3 replicates). All these samples were immediately frozen in liquid nitrogen and transferred to −80° C. refrigerator using dry ice, except the intestine for histomorphological study. For histomorphological analysis of the intestine, the tissues (3 fish per treatment group) were firstly dissected in the medical ice sheet. After 0.9% NaCl solution quick washing, the intestine tissues were fixed in the 4% paraformaldehyde (BL539A, Biosharp) for 48 h. The fixed intestinal samples were carefully transferred to 75% alcohol for long-term preservation.\nThe fixed intestine tissues were removed from the fixed liquid and then carefully trimmed with the ventilation cupboard. The trimmed tissues with different labels were placed in the dehydration box in the dehydrator (Donatello, DIAPATH) to dehydrate with gradient alcohol. The process was as follows: 75% alcohol 4 h, 85% alcohol 2 h, 90% alcohol 2 h, 95% alcohol 1 h, anhydrous ethanol I 30 min, anhydrous ethanol II 30 min, alcohol benzene 5˜10 min, xylene II 5˜10 min, 65° C. melting paraffin I1 h, 65° C. melting paraffin II 1 h, 65° C. melting paraffin Ill 1 h. The tissues were removed from the dehydration box and placed in the embedding frame of the embedding machine (JB-P5, Wuhan Junjie Electronics Co., Ltd), subsequently the frozen platform at −20° C. was used to cool the dewatering box. The solidified wax block was removed from the embedded frame and placed on the pathology slicer (RM2016, Shanghai Leica Instrument Co., Ltd) to obtain 4 μm slice thickness. The tissues were then flattened when the slice floated on the 40° C. warm water of the spreading machine. […]\nIn situ spatial quantitative identification of HE sections were imaged and analyzed by tissue cytometry. Briefly, the images were obtained on the TissueFAXS quantitative imaging system (TissueGnostics, Vienna, Austria). […] The scanned files were imported into the strataquest professional organization single-cell quantitative analysis system (v.7.0.1.176) for image processing and analysis. […]"}, "golden pompano": {"tested_on": "golden pompano", "assay": "Growth performance (final weight, weight gain rate) after 5-week dietary exposure", "description": "Fish exposure experiments were conducted in strict accordance with the Chinese Guidelines for Ethical Review of Laboratory Animal Welfare (GBIT 35892-2018). Three groups of golden pompanos (initial body wet weight of about 6 g) were randomly chosen and split after 14 days of acclimatization. There were three replicated net cages in Mirs Bay (Nanao, Shenzhen, China) for each group, with 30 fish in each duplicate. Each day, the experimental meals were given two-time (8:00 h, and 16:00 h) to golden pompano until satiation during the 5-week exposure experiment. The water was 29-32° C., dissolved oxygen 6.8-7.2 mg/L, and salinity 28-30‰ during dietary exposure.\nAfter dietary exposure, all fish were starved for 24 h, and the ice-water was used to anesthetize fish from different groups. To avoid sample contamination during sampling, we first thoroughly disinfected the sampling table with 75% alcohol, and then spread a disposable tablecloth and disinfected it twice. All metal dissection tools were high-temperature sterilization. Each treatment group shared one set of dissection tools. After each set of samples, the disposable tablecloth was replaced and thoroughly sterilized for the following group sampling. The tubes (sterile and enzyme-free) for the temporary storage of samples were purchased from Corning. […] Fish's weights were measured immediately. […]"}, "[2]": {"tested_on": "intestinal microorganism of golden pompano", "assay": "Bacterial 16S ribosomal RNA gene sequencing of intestine content (ASV-based)", "excerpt": "DNA samples from the intestine content (only mucosa without the muscularis) were isolated using the MP Fast® SPIN DNA Kit. Each replicated sample contained 6 fish, resulting in 18 fish per treatment group. DNA extracts were amplified using primers (338F_806R) for the V3-V4 region of the 16S rRNA gene. Procedures for the DNA extracts and PCR amplification and then illuminma Miseq sequencing are described as follows.\nDNA extraction and PCR amplification: The quality of DNA extraction was determined using 1% agarose gel electrophoresis, and DNA concentration and purity were determined using NanoDrop2000. […] The 16S rRNA gene V3-V4 variable region was amplified by PCR using 338F (5′-[…]-3′) and 806R (5′-[…]-3′). The amplification procedure was as follows: 95° C. pre-denaturation for 3 min, 27 cycles (95° C. denaturation for 30 s, 55° C. annealing for 30 s, 72° C. extension for 30 s), followed by 72° C. stable extension for 10 min and finally storage at 4° C. (PCR instrument: ABI GeneAmp® Model 9700). FastPfu buffer 4 μL, 2.5 mM dNTPs 2 μL, upstream primer (5 uM) 0.8 μL, downstream primer (5 uM) 0.8 μL, TransStart FastPfu DNA polymerase 0.4 μL, template DNA 10 ng, ddH2O make up to 20 μL. 3 replicates for each sample.\nIllumina Miseq sequencing: PCR products from the same sample were mixed and recovered using a 2% agarose gel. Fluorometer (Promega, USA) was used to quantify the recovered products. Library construction was performed using NEXTflex™ Rapid DNA-Seq Kit (Bioo Scientific, USA): (1) splice linkage; (2) removal of splice self-linked fragments using magnetic bead screening; (3) enrichment of library template using PCR amplification; (4) recovery of PCR products by magnetic beads to obtain the final library. Sequencing was performed using Illumina's Miseq PE300 platform (Shanghai Meiji Biomedical Technology Co., Ltd.).\nFor Illumina Miseq PE300, products were pooled by sequencing equimolar and paired-end sequences (2×300) to obtain the raw data. Please see description for raw data stitching and optimization. After the PE reads obtained by MiSeq sequencing were split, the double-ended reads were first quality controlled and filtered according to the sequencing quality. Meanwhile, according to the overlapping relationship between double-ended reads, the optimized data after quality control splicing were obtained. […]\nRaw data stitching and optimization: Fastp (version 0.20.0) software was used for quality control of the original sequencing sequence, and flash was used (version 1.2.7) software for splicing: (1) filter the bases with a mass value of less than 20 at the tail of reads and set a 50 bp window. […]"}}, "data": [{"compound": "O=S(=O)([O-])[O-].[Zn+2]", "note": "[ZnSO4, zinc sulphate]", "values": [{"measurement": "intestinal villus area", "setting": "[1]", "result": "reduced"}, {"measurement": "villus height distribution (changes in the fish villi intestine)", "setting": "[1]", "result": "0.05-0.33 μm"}, {"measurement": "area of basal layer of fish intestine", "setting": "[1]; compared with the other groups", "result": "reduced"}, {"measurement": "total number of goblet cells", "setting": "[1]; compared with the other groups", "result": "reduced"}, {"measurement": "villus/crypt ratio (intestinal/crypt ratio)", "setting": "[1]; compared with the other groups", "result": "reduced"}, {"measurement": "WGR (weight gain rate)", "setting": "golden pompano", "result": 268.78, "unit": "%"}, {"measurement": "final weight", "setting": "golden pompano; initial body wet weight about 6 g", "result": 22.30, "unit": "g"}, {"measurement": "genus-level differential microorganisms in fish intestine", "setting": "[2]", "result": "significantly enriched Photobacterium and Mycoplasma"}, {"measurement": "main intestinal microorganisms at phylum level", "setting": "[2]", "result": "Proteobacteria, Firmicutes and Cyanobacteria"}, {"measurement": "unique reads of microorganisms at ASV level (Venn diagram)", "setting": "[2]", "result": 808}, {"measurement": "unique reads of microorganisms at genus level (Venn diagram)", "setting": "[2]", "result": 137}]}]}
